Test results published in patent US20240279611A1, “EXOSOME PRODUCTION PROMOTING AGENT AND EXOSOME PRODUCTION PROMOTING METHOD” (FULLSTEM CO., LTD., priority 2021, published 2024).

Tested on: adipose-derived mesenchymal stem cells (ADSC)
Assay: Amount of exosomes produced from ADSC, measured with Exo Counter (CD81 sandwich immunoassay) after excluding single factors
Assay type: cell-based
Details: 48-hour culture in DMEM F12 on nonwoven fabric; one factor excluded from the eight factors of Table 1, compared with all eight added; CD81 on exosome surface detected in culture supernatant; FIG. 1
Protocol: 4×10^4 adipose-derived mesenchymal stem cells (ADSC) were seeded in each well. A nonwoven fabric (3D, BioNOCII, CESCO BIOENGINEERING CO., LTD. in non-adhesive 24 well plate (PrimeSurface (registered trademark) Sumitomo Bakelite Co., Ltd.) was used for cell culture. A basal medium was 1.5 ml of 10% FBS/DMEM F12 (Sigma-Aldrich). The number of days of culture was 6. Starting from Day 2, 1.5 ml of medium was exchanged daily, and the amount of sugar consumed in the used culture medium was measured.
Next, in the cell culture for 48 hours on Day 7 and Day 8, DMEM F12 was used as a medium so as to collect exosomes. In this 48-hour culture, 10% ExoFBS (Funakoshi Co., Ltd.) was added in Test #1. ExoFBS is a product from which bovine-derived exosomes are removed; therefore, influence on an exosome research is reduced.
In Test #3 of the 48-hour culture, only factor A was excluded from the eight factors shown in Table 1, and the other factors were added. In Test #4 of the 48-hour culture, only factor B was excluded from the eight factors shown in Table 1, and the other factors were added. In Test #5 of the 48-hour culture, only factor C was excluded from the eight factors shown in Table 1, and the other factors were added. In Test #6 of the 48-hour culture, only factor D was excluded from the eight factors shown in Table 1, and the other factors were added. In Test #7 of the 48-hour culture, only factor E was excluded from the eight factors shown in Table 1, and the other factors were added. In Test #8 of the 48-hour culture, only factor F was excluded from the eight factors shown in Table 1, and the other factors were added. In Test #9 of the 48-hour culture, only factor G was excluded from the eight factors shown in Table 1, and the other factors were added. In Test #10 of the 48-hour culture, only factor H was excluded from the eight factors shown in Table 1, and the other factors were added.
The amount of exosomes produced from ADSC was measured with Exo Counter (Kenwood), using 50 μl each from 1.5 ml of the collected culture supernatant. Exo Counter detects exosomes by sandwich immunoassay using disc and nanobeads antibodies in a surface antigen-specific manner. CD81 on the exosome surface was detected to quantify the exosome amount.

| Molecule | effect of the factor on the amount of exosomes produced |
| --- | --- |
| TNFα | inhibited the production of exosomes |
| IL-1β | promoted the production of exosomes |
| OC[C@H]1O[C@H](O[C@H]2O[C@H](CO)[C@@H](O)[C@H](O)[C@H]2O)[C@H](O)[C@@H](O)[C@@H]1O [trehalose, Trehalose] | promoted the production of exosomes |
| EGF [6045 Da protein consisting of 53 amino acid residues and three intramolecular disulfide bonds; ligand of epidermal growth factor receptor] | promotes the production of exosomes |
